Several values for one entry are separate records, joined by “and”; a condition that tells them apart may be missing. Identical values can stand only once.
Experiments:
DRD4 (D4.4 variant) [1] = molecular target: T1, DRD4 (D4.4 variant) (Homo sapiens, UniProt P21917); assay: Gαi/o-mediated cAMP inhibition (GloSensor); assay type: cell-based; details: DRD4; agonist, cAMP inhibition; read-out: EC50 ± SEM
T1 sequence (P21917 1-419): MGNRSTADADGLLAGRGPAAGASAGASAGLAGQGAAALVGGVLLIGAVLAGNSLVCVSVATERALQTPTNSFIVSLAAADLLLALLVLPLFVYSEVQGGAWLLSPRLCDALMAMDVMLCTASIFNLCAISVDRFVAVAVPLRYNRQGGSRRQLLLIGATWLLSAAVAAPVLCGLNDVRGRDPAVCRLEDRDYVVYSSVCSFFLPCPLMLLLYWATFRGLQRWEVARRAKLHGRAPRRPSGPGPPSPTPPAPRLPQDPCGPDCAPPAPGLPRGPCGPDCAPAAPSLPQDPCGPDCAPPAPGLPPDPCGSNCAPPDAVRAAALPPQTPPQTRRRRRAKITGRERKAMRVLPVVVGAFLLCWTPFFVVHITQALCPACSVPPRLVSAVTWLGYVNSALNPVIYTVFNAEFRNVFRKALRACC

DRD2 F1103.28A [2] = molecular target: T2, DRD2 F1103.28A (Homo sapiens, UniProt P14416, F110A); assay: Gαi/o-mediated cAMP inhibition (GloSensor), mutant; assay type: cell-based; parameters: expressed in transfected cells; host or cells: HEK293T (ATCC CRL-11268)
T2 sequence (P14416 whole entry F110A): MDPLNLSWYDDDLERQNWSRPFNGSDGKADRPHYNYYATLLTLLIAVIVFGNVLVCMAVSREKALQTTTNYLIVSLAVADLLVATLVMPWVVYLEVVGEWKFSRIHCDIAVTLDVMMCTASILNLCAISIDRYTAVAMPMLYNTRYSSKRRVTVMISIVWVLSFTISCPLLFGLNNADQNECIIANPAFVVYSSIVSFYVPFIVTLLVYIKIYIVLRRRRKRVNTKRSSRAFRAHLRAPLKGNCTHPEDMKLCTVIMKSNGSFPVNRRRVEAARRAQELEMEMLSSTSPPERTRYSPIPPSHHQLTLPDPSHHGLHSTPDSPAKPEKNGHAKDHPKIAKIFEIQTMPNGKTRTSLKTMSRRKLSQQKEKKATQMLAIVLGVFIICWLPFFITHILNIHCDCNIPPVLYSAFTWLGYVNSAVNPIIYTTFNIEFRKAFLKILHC

DRD3 F1063.28A [3] = molecular target: T3, DRD3 F1063.28A (Homo sapiens, UniProt P35462, F106A); assay: cell-based; assay type: cell-based
T3 sequence (P35462 whole entry F106A): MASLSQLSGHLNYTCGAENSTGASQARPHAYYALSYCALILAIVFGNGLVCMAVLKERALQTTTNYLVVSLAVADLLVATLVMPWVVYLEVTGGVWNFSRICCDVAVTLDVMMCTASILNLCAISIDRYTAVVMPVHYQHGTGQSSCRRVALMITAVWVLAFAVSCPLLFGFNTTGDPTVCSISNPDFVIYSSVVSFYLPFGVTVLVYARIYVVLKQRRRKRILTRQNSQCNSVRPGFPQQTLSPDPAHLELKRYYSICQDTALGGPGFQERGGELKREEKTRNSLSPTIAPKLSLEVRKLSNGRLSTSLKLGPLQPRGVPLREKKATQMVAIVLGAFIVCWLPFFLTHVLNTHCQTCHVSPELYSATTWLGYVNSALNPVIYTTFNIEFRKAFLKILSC

DRD3 F1063.28A [4] = molecular target: T3, DRD3 F1063.28A; assay: biochemical; assay type: binding
DRD3 wild-type = DRD3 wild-type (Homo sapiens, UniProt P35462); assay: Radioligand competition binding, [3H]-N-methylspiperone; details: DRD3; [3H]-methylspiperone (0.8-1.0 nM); read-out: Ki
DRD3 wild-type, sequence (P35462 whole entry): as the sequence (P35462 whole entry F106A) above, with A106F counted along it

DRD2 F1103.28L [5] = molecular target: T4, DRD2 F1103.28L (Homo sapiens, UniProt P14416, F110L); assay: Gαi/o-mediated cAMP inhibition (GloSensor), mutant; assay type: cell-based
T4 construct: expressed in transfected cells; host or cells: HEK293T (ATCC CRL-11268)
T4 sequence (P14416 whole entry F110L): as the sequence (P14416 whole entry F110A) above, with A110L counted along it

DRD3 = DRD3 (Homo sapiens, UniProt P35462); assay: β-arrestin2 recruitment (Tango); assay type: cell-based; details: DRD3, Tango
DRD3, sequence (P35462 whole entry): as the sequence (P35462 whole entry F106A) above, with A106F counted along it

DRD2 (D2 long receptor) [6] = molecular target: T5, DRD2 (D2 long receptor) (Homo sapiens, UniProt P14416); assay: Gαi/o-mediated cAMP inhibition (GloSensor split-luciferase cAMP reporter), HEK293T; assay type: cell-based; details: for response, Fig_S11d dose-response source data: replicate values;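 on all read-outs here: compounds applied 15 min at room temperature, then luciferin plus 400 nM isoproterenol to raise cAMP through endogenous β2-adrenergic receptors, luminescence read 15 min later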
T5 sequence (P14416 whole entry): as the sequence (P14416 whole entry F110A) above, with A110F counted along it

[7] = molecular target: DRD2 (D2 long receptor) wild-type (Homo sapiens, UniProt P14416); assay: Radioligand competition binding, [3H]-N-methylspiperone, HEK293T membranes; details: DRD2; [3H]-methylspiperone (0.8-1.0 nM); read-out: Ki
DRD2 (D2 long receptor) wild-type, sequence (P14416 whole entry): as the sequence (P14416 whole entry F110A) above, with A110F counted along it

DRD2 F1103.28A [8] = molecular target: T2, DRD2 F1103.28A; assay: β-arrestin2 recruitment (Tango), mutant; assay type: cell-based; parameters: expressed in transfected cells; host or cells: HEK293T (ATCC CRL-11268)
[9] = molecular target: T6, DRD4 (D4.4 variant) wild-type (Homo sapiens, UniProt P21917); assay: Radioligand competition binding, [3H]-N-methylspiperone; details: DRD4; [3H]-methylspiperone (0.8-1.0 nM); read-out: Ki
T6 sequence (P21917 1-419): T1 sequence (P21917 1-419)

DRD2 F1103.28A [10] = molecular target: T2, DRD2 F1103.28A; assay type: binding; parameters: expressed in transfected cells; host or cells: HEK293T (ATCC CRL-11268)
DRD2 F1103.28L [11] = molecular target: T4, DRD2 F1103.28L; assay: β-arrestin2 recruitment (Tango), mutant; assay type: cell-based
DRD2 (D2 long receptor) [12] = molecular target: T5, DRD2 (D2 long receptor); assay: β-arrestin2 recruitment (Tango), HTLA cells; assay type: cell-based; details: for response, Fig_S11e dose-response source data: replicate values
DRD4 (D4.4 variant) [13] = molecular target: T1, DRD4 (D4.4 variant); assay: β-arrestin2 recruitment (Tango); assay type: cell-based; details: DRD4; Tango; read-out: EC50 ± SEM
[14] = read-out: Emax relative to quinpirole response

CCOc1cccc2cc(C(C)NCC3(O)CCCCCC3)oc12 (stereo not shown) [O4LE7]
EC50 (DRD4 (D4.4 variant) [1]): > 10 µM | EC50 (DRD2 F1103.28A [2]): > 10 µM | EC50 (DRD3 F1063.28A [3]): > 10 µM | Ki (DRD3 F1063.28A [4]): 0.417 µM | affinity decreased, mutant vs wild type (DRD3 F1063.28A [4]; DRD3 Phe106^3.28Ala vs wild-type DRD3): 1.75 fold | Ki (DRD3 wild-type): 0.24 µM | EC50 (DRD2 F1103.28L [5]; DRD2 F1103.28L (b138 head prints DRD2 F1063.28L)): 0.00361 ± 7e-05 µM | Emax (DRD2 F1103.28L [5]; read-out: Emax relative to quinpirole response, DRD2 F1103.28L): 72.6% | EC50 (DRD3; read-out: EC50 ± SEM): 0.803 ± 0.265 µM | Emax (DRD3; [14]): 32.3% | EC50 (DRD2 (D2 long receptor) [6]; DRD2, agonist, Gαi/o-mediated cAMP inhibition, read-out: EC50 ± SEM): 0.00165 ± 0.00105 µM | response, Fig_S11d dose-response source data (DRD2 (D2 long receptor) [6]; Log[Drug] -6.52): 96.8634 | response, Fig_S11d dose-response source data (DRD2 (D2 long receptor) [6]; Log[Drug] -7): 95.598 and 91.4295 and 85.3505 and 88.3932 and 84.5729 and 79.5858 and 85.933 and 88.7083 and 90.2631 | response, Fig_S11d dose-response source data (DRD2 (D2 long receptor) [6]; Log[Drug] -7.52): 86.7896 and 85.152 and 83.291 and 74.147 and 71.7381 and 81.1478 and 90.9653 and 82.4555 and 87.421 | response, Fig_S11d dose-response source data (DRD2 (D2 long receptor) [6]; Log[Drug] -8): 74.0608 and 77.7579 and 74.8548 and 59.6561 and 53.4646 and 60.8794 and 74.9823 and 74.9154 and 83.8097 | response, Fig_S11d dose-response source data (DRD2 (D2 long receptor) [6]; Log[Drug] -8.52): 64.5825 and 59.1734 and 57.1139 and 43.5468 and 40.7239 and 43.8667 and 54.9367 and 67.0577 and 71.5884 | response, Fig_S11d dose-response source data (DRD2 (D2 long receptor) [6]; Log[Drug] -9): 50.9108 and 57.9824 and 64.8058 and 28.6043 and 24.1441 and 25.7626 and 68.5958 and 61.4569 and 59.9355 | response, Fig_S11d dose-response source data (DRD2 (D2 long receptor) [6]; Log[Drug] -9.52): 29.7954 and 31.0609 and 40.6137 and 14.7533 and 4.309 and 6.285 and 34.6235 and 38.6026 and 45.7749 | response, Fig_S11d dose-response source data (DRD2 (D2 long receptor) [6]; Log[Drug] -10): 30.912 and 22.4013 and 39.5964 and 4.779 and -4.2354 and 0.1871 and 39.589 and 34.2056 and 43.2671 | response, Fig_S11d dose-response source data (DRD2 (D2 long receptor) [6]; Log[Drug] -10.52): 36.5196 and 13.1215 and 30.515 and 10.8765 and -4.6118 and 7.301 and 39.8732 and 28.9894 and 33.9548 | response, Fig_S11d dose-response source data (DRD2 (D2 long receptor) [6]; Log[Drug] -11): 25.0067 and 7.067 and 19.399 and -4.2354 and -19.0273 and 3.763 and 32.3665 and 18.8244 and 27.4345 | response, Fig_S11d dose-response source data (DRD2 (D2 long receptor) [6]; Log[Drug] -11.52): 11.5335 and 13.2455 and 15.2305 and 7.489 and 4.214 and 9.484 and 32.4836 and 21.3489 and 42.8324 | response, Fig_S11d dose-response source data (DRD2 (D2 long receptor) [6]; Log[Drug] -12): 5.306 and -4.8923 and -12.733 and -1.883 and -0.2081 and -16.5056 and -3.2274 and 22.4524 and -2.0571 | Emax (DRD2 (D2 long receptor) [6]; HEK-293T, read-out: Emax relative to quinpirole response, DRD2, cAMP inhibition): 95.2% | Ki [7]: 1.58 µM | EC50 (DRD2 F1103.28A [8]): > 10 µM | Ki [9]: 4.07 µM | Ki (DRD2 F1103.28A [10]; DRD2 F1103.28A, read-out: pKi ± SEM (converted)): 0.214 µM | affinity increase (binding enhanced), mutant vs wild type (DRD2 F1103.28A [10]; DRD2 Phe110^3.28Ala vs wild-type DRD2): 7.52 fold | EC50 (DRD2 F1103.28L [11]): 0.504 µM | Emax (DRD2 F1103.28L [11]; [14]): 25.8% | EC50 (DRD2 (D2 long receptor) [12]; DRD2, β-arrestin2 recruitment (Tango), read-out: EC50 ± SEM): 0.0446 ± 0.00471 µM | response, Fig_S11e dose-response source data (DRD2 (D2 long receptor) [12]; Log[Drug] -6.52): 70.7144 | response, Fig_S11e dose-response source data (DRD2 (D2 long receptor) [12]; Log[Drug] -7): 60.0625 and 58.8888 and 58.966 and 44.6969 and 52.556 and 54.4002 and 47.2717 and 45.6897 and 52.8235 | response, Fig_S11e dose-response source data (DRD2 (D2 long receptor) [12]; Log[Drug] -7.52): 37.663 and 37.8279 and 34.2682 and 29.2235 and 29.8377 and 33.7069 and 31.0328 and 28.5097 and 31.1567 | response, Fig_S11e dose-response source data (DRD2 (D2 long receptor) [12]; Log[Drug] -8): 19.0993 and 25.2494 and 16.3411 and 14.3144 and 11.2312 and 12.8766 and 17.2566 and 18.2263 and 16.5156 | response, Fig_S11e dose-response source data (DRD2 (D2 long receptor) [12]; Log[Drug] -8.52): 6.955 and 10.6803 and 8.41 and 5.811 and 4.949 and 5.989 and 8.148 and 9.142 and 8.777 | response, Fig_S11e dose-response source data (DRD2 (D2 long receptor) [12]; Log[Drug] -9): 5.592 and 4.443 and 5.4634 and 4.207 and 4.266 and 4.232 and 6.141 and 5.2483 and 8.786 | response, Fig_S11e dose-response source data (DRD2 (D2 long receptor) [12]; Log[Drug] -9.52): 4.527 and 4.325 and 4.4009 and 4.395 and 4.556 and 4.701 and 4.762 and 4.575 and 4.648 | response, Fig_S11e dose-response source data (DRD2 (D2 long receptor) [12]; Log[Drug] -10): 3.636 and 4.222 and 3.934 and 4.061 and 4.088 and 4.136 and 4.898 and 3.74 and 4.41 | response, Fig_S11e dose-response source data (DRD2 (D2 long receptor) [12]; Log[Drug] -10.52): 4.52 and 6.171 and 4.768 and 3.986 and 4.148 and 4.0514 and 3.608 and 3.803 and 4.57 | response, Fig_S11e dose-response source data (DRD2 (D2 long receptor) [12]; Log[Drug] -11): 5.604 and 3.965 and 4.161 and 3.823 and 4.063 and 4.032 and 3.814 and 4.075 and 4.582 | response, Fig_S11e dose-response source data (DRD2 (D2 long receptor) [12]; Log[Drug] -11.52): 3.3514 and 3.514 and 3.342 and 3.863 and 4.025 and 4.187 and 4.1 and 3.746 and 4.367 | response, Fig_S11e dose-response source data (DRD2 (D2 long receptor) [12]; Log[Drug] -12): 4.706 and 3.881 and 4.189 and 3.844 (2×) and 3.873 and 3.954 and 3.594 and 3.602 | Emax (DRD2 (D2 long receptor) [12]; HTLA, read-out: Emax relative to quinpirole response, DRD2, Tango): 71.8% | EC50 (DRD4 (D4.4 variant) [13]): > 10 µM
